# Assay results taken from US9975854B2, “Benzomorphan analogs and use thereof” (Purdue Pharma L.P., priority 2014, dated 2018).
# What was measured:
# μ-opioid receptor [1] = biological target: T1, μ-opioid receptor (Homo sapiens (Human), UniProt P35372); test: μ-opioid receptor [35S]GTPγS functional assay, HEK-293 or CHO cells; assay type: biochemical; settings: HEK-293 or CHO cells; for EC50: read-out: GTPγS μ EC50; for Emax: relative to DAMGO
# Outline: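 Membranes from recombinant human μ-opioid receptor cells (HEK-293, CHO or U-2 OS) at 0.026 mg/mL with saponin, […] and 0.20 nM [35S]GTPγS in HEPES buffer pH 7.4, incubated 30 min at about 25 °C; bound radioactivity by filtration. EC50 from sigmoidal fit; Emax relative to DAMGO.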
# κ-opioid receptor [2] = biological target: T2, κ-opioid receptor (Homo sapiens (Human), UniProt P41145); test: κ-opioid receptor radioligand dose-displacement binding assay ([3H]-U69,593); settings: binding affinity, HEK-293 or CHO cells
# Protocol: Membranes from recombinant HEK-293 cells, CHO or U-2 OS cells expressing the recombinant human κ opioid receptor (κ) were prepared by lysing cells in ice cold hypotonic buffer (2.5 mM MgCl2, 50 mM HEPES, pH 7.4) (10 mL/10 cm dish) followed by homogenization with a tissue grinder/Teflon pestle. Membranes from a cell line naturally expressing kappa opioid receptors can also be used. Membranes were collected by centrifugation at 30,000×g for 15 min at 4° C. and pellets were resuspended in hypotonic buffer to a final concentration of 1-3 mg/mL. Protein concentrations were determined using the BioRad protein assay reagent with bovine serum albumen as standard. Aliquots of κ receptor membranes were stored at −80° C.
# Radioligand dose displacement assays used 0.4 nM [^3H]-U69,593 (GE Healthcare, Piscataway, N.J.; 40 Ci/mmole) with 15 μg membrane protein (recombinant K opioid receptor expressed in HEK 293 cells; in-house prep) in a final volume of 200 μl binding buffer (5% DMSO, 50 mM Trizma base, pH 7.4). Non-specific binding was determined in the presence of 10 μM unlabeled naloxone or U69,593. All reactions were performed in 96-well polypropylene plates for 1 hr at a temperature of about 25° C. Binding reactions were terminated by rapid filtration onto 96-well Unifilter GF/C filter plates (Perkin Elmer, Shelton, Conn.) presoaked in 0.5% polyethylenimine (Sigma). Harvesting was performed using a 96-well tissue harvester (Perkin Elmer, Shelton, Conn.) followed by five filtration washes with 200 μl ice-cold binding buffer. Filter plates were subsequently dried at 50° C. for 1-2 hours. Fifty μl/well scintillation cocktail (Perkin Elmer, Shelton, Conn.) was added and plates were counted in a Packard Top-Count for 1 min/well.
# In TABLE 3, binding affinity of certain Compounds of the Invention to the ORL-1, μ-, and κ-opioid receptors was determined as described above in HEK-293 or CHO cells.
# κ-opioid receptor [3] = biological target: T2, κ-opioid receptor; test: κ-opioid receptor [35S]GTPγS functional assay, U-2 OS cells; assay type: biochemical; settings: for Emax: relative to U69,593
# Protocol: (§1) Functional [^35S]GTPγS binding assays were conducted as follows. K opioid receptor membrane solution was prepared by sequentially adding final concentrations of 0.026 μg/μl κ membrane protein (in-house), 10 μg/mL saponin, 3 μM GDP and 0.20 nM [^35S]GTPγS to binding buffer (100 mM NaCl, 10 mM MgCl2, 20 mM HEPES, pH 7.4) on ice. The prepared membrane solution (190 μl/well) was transferred to 96-shallow well polypropylene plates containing 10 μl of 20× concentrated stock solutions of agonist prepared in DMSO. Plates were incubated for 30 min at a temperature of about 25° C. with shaking. Reactions were terminated by rapid filtration onto 96-well Unifilter GF/B filter plates (Perkin Elmer, Shelton, Conn.) using a 96-well tissue harvester (Packard) and followed by three filtration washes with 200 μl ice-cold binding buffer (10 mM NaH2PO4, 10 mM Na2HPO4, pH 7.4). Filter plates were subsequently dried at 50° C. for 2-3 hours. Fifty μl/well scintillation cocktail (Perkin Elmer, Shelton, Conn.) was added and plates were counted in a Packard Top-Count for 1 min/well.
# κ GTP EC50 is the concentration of a compound providing 50% of the maximal response for the compound at a κ receptor.
# κ GTP Emax (%) is the maximal effect elicited by a compound relative to the effect elicited by U69,593.
# (§2) In TABLE 5, activity response of certain Compounds of the Invention to the μ- and κ-opioid receptors was determined as described above for functional assays using U-2 OS cells.
# μ-opioid receptor [4] = biological target: T1, μ-opioid receptor; test: μ-opioid receptor [35S]GTPγS functional assay, U-2 OS cells; assay type: biochemical; settings: for Emax: relative to DAMGO
# Protocol: [^35S]GTPγS functional assays were conducted using freshly thawed μ-receptor membranes prepared in-house from a cell line expressing recombinant opioid receptor in a HEK-293, CHO or U-2 OS cell background, or purchased from a commercial source (Perkin Elmer, Shelton, Conn.; or DiscovRx, Fremont, Calif.). Assay reactions were prepared by sequentially adding the following reagents to binding buffer (100 mM NaCl, 10 mM MgCl2, 20 mM HEPES, pH 7.4) on ice (final concentrations indicated): membrane protein (0.026 mg/mL), saponin ([…]), GDP ([…]) and [^35S]GTPγS (0.20 nM; Perkin Elmer, Shelton, Conn.). The prepared membrane solution (190 μl/well) was transferred to 96-shallow well polypropylene plates containing 10 μl of 20× concentrated stock solutions of the agonist [D-Ala^2, N-methyl-Phe^4 Gly-ol^5]-enkephalin (DAMGO) prepared in dimethyl sulfoxide (DMSO). Plates were incubated for 30 min at about 25° C. with shaking. Reactions were terminated by rapid filtration onto 96-well Unifilter GF/B filter plates (Perkin Elmer, Shelton, Conn.) using a 96-well tissue harvester (Perkin Elmer, Shelton, Conn.) followed by three filtration washes with 200 μl of ice-cold wash buffer (10 mM NaH2PO4, 10 mM Na2HPO4, pH 7.4). Filter plates were subsequently dried at 50° C. for 2-3 hr. BetaScint scintillation cocktail (Perkin Elmer, Shelton, Conn.) was added (50 μl/well) and plates were counted using a Packard Top-Count for 1 min/well. Data were analyzed using the sigmoidal dose-response curve fitting functions in GraphPad PRISM v. 3.0, or an in-house function for non-linear, sigmoidal dose-response curve-fitting.
# μ GTP EC50 is the concentration of a compound providing 50% of the maximal response for the compound at a μ-opioid receptor.
# μ GTP Emax (%) is the maximal effect elicited by a compound relative to the effect elicited by DAMGO, a standard p agonist. Generally, the μ GTP Emax (%) value measures the efficacy of a compound to treat or prevent pain or other Conditions.
# as §2
# κ-opioid receptor [5] = biological target: T2, κ-opioid receptor; test: κ-opioid receptor [35S]GTPγS functional assay, HEK-293 or CHO cells; assay type: biochemical
# Protocol: as §1
# κ GTP EC50 is the concentration of a compound providing 50% of the maximal response for the compound at a κ receptor. […]
# In TABLE 4, activity response of certain Compounds of the Invention to the μ- and κ-opioid receptors was determined as described above for functional assays using HEK-293 or CHO cells.
Compound,EC50 (μ-opioid receptor [1]),Emax (μ-opioid receptor [1]),Ki (κ-opioid receptor [2]),EC50 (κ-opioid receptor [3]),Emax (κ-opioid receptor [3]),EC50 (μ-opioid receptor [4]),Emax (μ-opioid receptor [4]),EC50 (κ-opioid receptor [5]; bound given in uM),"Emax (κ-opioid receptor [5]; relative to U69,593)",Ki (κ-opioid receptor [2]; bound given in uM),EC50 (μ-opioid receptor [1]; bound given in uM)
"CN1CC[C@@]2(C)c3cc(O)ccc3C[C@@H]1[C@@H]2N(C)CC1CCN(CC(C)(C)O)CC1 [Compound 97, (2R,6S,11R)-11-(((1-(2-hydroxy-2-methylpropyl)piperidin-4-yl)methyl)(methyl)amino)-3,6-dimethyl-1,2,3,4,5,6-hexahydro-2,6-methanobenzo[d]azocin-8-ol]",0.0226 ± 0.00234 µM,47 ± 1.53%,0.00212 ± 0.00055 µM,,,,,,,,
"CN1CC[C@@]2(C)c3cc(O)ccc3C[C@@H]1[C@@H]2N(C)C(=O)CC(=O)Nc1ccc(F)cc1F [Compound 26, N^1-(2,4-difluorophenyl)-N^3—((2R,6S,11R)-8-hydroxy-3,6-dimethyl-1,2,3,4,5,6-hexahydro-2,6-methanobenzo[d]azocin-11-yl)-N^3-methylmalonamide]",0.00397 ± 0.00025 µM,76.7 ± 2.73%,,54.3 ± 9.45 nM,81.7 ± 10.7%,0.33 ± 0.025 nM,107 ± 3.06%,,,,
"CN1CC[C@@]2(C)c3cc(O)ccc3C[C@@H]1[C@@H]2N(C)CC(=O)Nc1nc2ccc(F)cc2s1 [Compound 40, N-(6-fluorobenzo[d]thiazol-2-yl)-2-(((2R,6S,11R)-8-hydroxy-3,6-dimethyl-1,2,3,4,5,6-hexahydro-2,6-methanobenzo[d]azocin-11-yl)(methyl)amino)acetamide]",,,,10900 ± 1410 nM,45.2 ± 4.82%,539 ± 62.8 nM,18.7 ± 0.67%,,,,
"CN1CC[C@@]2(C)c3cc(O)ccc3C[C@@H]1[C@@H]2NCCc1ccc(S(C)(=O)=O)cc1 [Compound 10, (2R,6S,11R)-3,6-dimethyl-11-((4-(methylsulfonyl)phenethyl)amino)-1,2,3,4,5,6-hexahydro-2,6-methanobenzo[d]azocin-8-ol]",0.225 ± 0.0608 µM,38.5 ± 2.33%,0.301 ± 0.00979 µM,,,,,> 20 µM,1%,,
"CN1CC[C@@]2(C)c3cc(O)ccc3C[C@@H]1[C@H]2NCCC1(O)CCCCC1 [Compound 12, (2R,6S,11S)-11-((2-(1-hydroxycyclohexyl)ethyl)amino)-3,6-dimethyl-1,2,3,4,5,6-hexahydro-2,6-methano-benzo[d]azocin-8-ol]",0.223 ± 0.0298 µM,47.7 ± 4.84%,,137 ± 20.1 nM,54 ± 5.92%,33.6 ± 1.43 nM,100 ± 1.67%,,,,
"CC(C)S(=O)(=O)N1CCC(CN(C)[C@H]2[C@H]3Cc4ccc(O)cc4[C@]2(C)CCN3C)CC1 [Compound 55, (2R,6S,11R)-11-(((1-(isopropylsulfonyl)piperidin-4-yl)methyl)(methyl)amino)-3,6-dimethyl-1,2,3,4,5,6-hexahydro-2,6-methanobenzo[d]azocin-8-ol]",0.00328 ± 0.00039 µM,52 ± 4.85%,,,,,,,,> 20 µM,
"CN1CCC2(C)c3cc(O)ccc3C[C@@H]1C2NC(=O)Cc1ccccc1 (stereo in doubt) [Compound 29, N-((2R,6S,11S)-8-hydroxy-3,6-dimethyl-1,2,3,4,5,6-hexahydro-2,6-methanobenzo[d]azocin-11-yl)-2-phenylacetamide]",,1%,,,,,,,,,> 20 µM
"CN1CC[C@@]2(C)c3cc(O)ccc3C[C@@H]1[C@@H]2N(C)S(=O)(=O)Cc1ccccc1 [Compound 100, N-((2R,6S,11R)-8-hydroxy-3,6-dimethyl-1,2,3,4,5,6-hexahydro-2,6-methanobenzo[d]azocin-11-yl)-N-methyl-1-phenylmethane-sulfonamide]",8.95 ± 2.04 µM,25 ± 1.53%,,,,,,,,,
